From ChEMBL document CHEMBL5244207, “Phenanthrenes: A Promising Group of Plant Secondary Metabolites” (J Nat Prod, 2018) come the findings set out here.

Values after ≈ are worked out from the molar mass of the structure shown. Values joined by “and” are separate entries in the source; they are usually repeats but may differ in a detail not shown here. Equal values may be shown once.

For assay [1], the system named is RAW264.7. Put plainly: Antiinflammatory activity in mouse RAW 264.7 cells assessed as inhibition of LPS-induced nitric oxide production measured after 48 hrs by Griess reagent assay. In kind it is functional, cell-based. The settings on record: RAW264.7, 48 h.
Assay [2] is described as follows: Antioxidant activity assessed as DPPH radical scavenging activity. In kind it is functional. For orientation: The DPPH test is a chemical assay of radical scavenging.
The test system of another assay is BV-2. Put plainly: Antiinflammatory activity in mouse BV2 cells assessed as reduction in LPS-induced nitric oxide production. In kind it is functional, cell-based.
For assay [3], the system named is Mus musculus. As to the kind of experiment: Anxiolytic activity in mouse assessed as number of entries in open arm at 5 mg/kg, po measured after 60 mins by elevated plus maze test. The class given is functional. The note with it: 1 h.
Assay [4] deals with Mus musculus. Put plainly: Anxiolytic activity in mouse assessed as increase in time spent in open arm at 5 mg/kg, po measured after 60 mins by elevated plus maze test. In kind it is functional. The note with it: 1 h.
The test system of a further assay is MeWo. As to the kind of experiment: Cytotoxicity against human MeWo cells by MTT assay. The class given is functional, cell-based. In general terms: Tetrazolium dyes change colour on reduction, which living cells bring about.
The next assay concerns B16-F10. As to the kind of experiment: Cytotoxicity against mouse B16-F10 cells by MTT assay. The class given is functional, cell-based.
Another assay has as its system CT26.WT. As to the kind of experiment: Cytotoxicity against mouse CT26.WT cells by MTT assay. The class given is functional, cell-based.
For a further assay, the system named is CHO. As to the kind of experiment: Cytotoxicity against CHO cells by MTT assay. In kind it is functional, cell-based. The note with it: Cricetulus griseus.
Assay [5] in a line: Inhibition of H2O2-induced ROS production in human HaCaT cells. The class given is functional, cell-based.
A further assay has as its system HaCaT. Put plainly: Antiinflammatory activity against human HaCaT cells assessed as inhibition of PGE2 production. In kind it is functional, cell-based.
Assay [6] can be described thus: Antioxidant activity assessed as hydrogen peroxide scavenging activity. In kind it is functional.
Assay [7] concerns the target Cyclin-dependent kinase 1/cyclin B (Homo sapiens, UniProt P06493). Put plainly: Inhibition of CDK1/Cyclin B (unknown origin) in presence of ATP by scintillation counter analysis. The class given is protein-complex assay.
For assay [8], the system named is RAW264.7. Put plainly: Antiinflammatory activity against mouse RAW264.7 cells assessed as inhibition of LPS-induced COX2 expression. In kind it is functional, cell-based.
The subject of assay [9] is RAW264.7. Put plainly: Antiinflammatory activity in mouse RAW264.7 cells assessed as reduction in LPS-induced nitric oxide production. The class given is functional, cell-based.
A short description of assay [10]: Antioxidant activity assessed as ABTS radical scavenging activity. The class given is functional.
The nature of assay [11]: Antioxidant activity assessed as DPPH radical scavenging activity at 20 uM relative to control. In kind it is functional.
A short description of assay [12]: Antioxidant activity assessed as DPPH radical scavenging activity incubated for 30 mins by spectrophotometric analysis. The class given is functional.

As a reminder, the IC50 is the midpoint of a concentration-inhibition curve. In general, EC50 refers to the concentration needed to bring the measured effect to its halfway point.

For `C=Cc1c(C)c(O)cc2c1ccc1c(C)c(O)ccc12`, in the assay with RAW264.7 [1], the IC50 was found to be 3.2 µM.

Consider `C[C@@H]1O[C@@H](OC[C@H]2O[C@@H](Oc3c(-c4ccc(O)c(O)c4)oc4cc(O)cc(O)c4c3=O)[C@H](O)[C@@H](O)[C@@H]2O)[C@H](O)[C@H](O)[C@H]1O` [RUTIN], for which, in assay [2], the IC50 was found to be 2.5 µg/mL.

Consider `CNC(=N)NCCC[C@H](N)C(=O)O` [TILARGININE], for which the IC50 with BV-2 was determined as 16.3 µM.

As to `CN1C(=O)CN=C(c2ccccc2)c2cc(Cl)ccc21` [DIAZEPAM], in the assay on Mus musculus [3], the Activity amounted to 13.6. Besides, the Time with Mus musculus [4] turned out to be 111.9 s.

With `O=c1[nH]cc(F)c(=O)[nH]1` [FLUOROURACIL], the IC50 turned out to be 8 µg/mL (≈ 61.5 µM) with MeWo, 4 µg/mL (≈ 30.8 µM) in the assay with B16-F10, 5 µg/mL (≈ 38.4 µM) with CT26.WT and 12 µg/mL (≈ 92.3 µM) in the assay on CHO.

As to `COc1c(O)cc2c(c1OC)-c1ccc(O)cc1CC2` [ERIANTHRIDIN], in [2] (read-out: IC50), the half-inhibitory concentration (IC50) is 14.9 µM.

In the case of `N=C(N)NN` [PIMAGEDINE], in assay [2] (read-out: IC50), the IC50 came out at 21.7 µM.

As to `COc1cc(O)c2c(c1)CCc1cc(O)c(-c3c(/C=C/c4cccc(O)c4)cc(O)cc3OC)cc1-2`, the EC50 in assay [2] came to 47.3 µM.

Regarding `COc1cc(O)c2c(ccc3cc(O)ccc32)c1-c1c(OC)cc(O)c2c1ccc1cc(O)ccc12`, in [2], the IC50 worked out at 9.4 µg/mL.

Regarding `COc1cc2c(cc1O)CCc1cc(O)cc(OC)c1-2`, the IC50 worked out at 9.4 µM in assay [5]; 19.4 µM in the assay on BV-2; 9 µM in assay [2] (read-out: IC50); 19.3 µM in the assay on HaCaT; 0.04 µM in assay [6].

Turning to `COc1cc(O)c2c(c1)CCc1c-2ccc(OC)c1O`, in assay [2], the EC50 turned out to be 27.7 µM. Besides, in assay [2] (read-out: IC50), the IC50 stood at 27.7 µM.

Turning to `COc1cc(O)c2c(c1-c1c(OC)cc(O)c3c1CCc1cc(O)ccc1-3)CCc1cc(O)ccc1-2`, the half-maximal effective concentration (EC50) in [2] turned out to be 7.7 µM.

With `COc1cc2c(c(O)c1OC)CCc1cc(O)c(OC)c(OC)c1-2`, in assay [7], the half-inhibitory concentration (IC50) was found to be 0.07 µM.

For `COc1cc(O)c2c(c1)CCc1cccc(O)c1-2`, the EC50 in assay [2] turned out to be 10 µM. The IC50 in assay [2] (read-out: IC50) is 21.4 µM.

For `COc1cc(OC)c2c(ccc3cc(OC)c(O)cc32)c1`, the IC50 in the assay with RAW264.7 [8] is 1.8 µM.

`COc1cc(O)c2c(c1)CCc1cc(O)c(-c3c(OC)cc(O)c4c3ccc3cc(O)ccc34)cc1-2`: the IC50 in [2] worked out at 12.9 µg/mL.

Consider `COc1ccc2ccc3ccc(O[C@@H]4O[C@H](CO)[C@@H](O)[C@H](O)[C@H]4O)c(O)c3c2c1`, for which the IC50 in the assay with BV-2 came out at 10.6 µg/mL; in assay [2] (read-out: IC50) it was 0.2 µM.

With `COC(C)c1cc(O)cc2ccc3c(C)c(O)ccc3c12` (stereo unspecified), the IC50 in the assay with RAW264.7 [9] (Mus musculus, RAW264.7) amounted to 11.1 µM; in the assay with RAW264.7 [9] (raw264.7), 16.3 µM.

For the compound `Cc1c(O)ccc2c1CCc1cc(O)cc(CO)c1-2`, the IC50 in the assay with RAW264.7 [9] (Mus musculus, RAW264.7) worked out at 16 µM.

Regarding `COc1ccc(O)c(C(C)(C)C)c1.COc1ccc(O)cc1C(C)(C)C` [BUTYLATED HYDROXYANISOLE], the IC50 in assay [2] stood at 9.3 µg/mL.

In the case of `COc1c(O)cc2c3c1COc1cc(O)cc(c1-3)CC2`, the IC50 in assay [5] was 8.8 µM; in assay [2] (read-out: IC50), 8.4 µM; in the assay with HaCaT, 12.2 µM; in [6] it was 0.03 µM. The EC50 in assay [2] was determined as 8.8 µM.

In the case of `C=Cc1c(C)c(O)c(-c2c(O)c(C)c(C=C)c3c2ccc2c(C)c(O)ccc23)c2ccc3c(C)c(O)ccc3c12`, the Activity in [10] is 85.2%.

In the case of `C=Cc1cc(O)cc2c1-c1ccc(O)c(C)c1CC2` [EFFUSOL], the IC50 in the assay with RAW264.7 [9] (Mus musculus, RAW264.7) worked out at 15.1 µM. The Activity in the assay on Mus musculus [3] was determined as 7.8. For the same compound, the Time in the assay on Mus musculus [4] is 75.5 s.

As to `COc1cc(O)c2c(c1)CCc1cc(O)cc(O)c1-2`, the IC50 in assay [2] (read-out: IC50) worked out at 10.2 µM.

Regarding `COc1cc(O)c2c(c1)CCc1cc(O)c(-c3c(OC)cc(O)c4c3CCc3cc(O)ccc3-4)cc1-2`, in assay [2], the EC50 is 26.7 µM.

For the compound `O=C1O[C@H]([C@@H](O)CO)C(O)=C1O` [ASCORBIC ACID], the IC50 amounted to 18 µM in assay [2] (read-out: IC50) and 0.41 µM in assay [12]. For the same compound, the Activity in [11] was found to be 2.9%; in assay [10], 88.7%.

Regarding `Oc1ccc2c(c1)CCc1cc(O)cc(O)c1-2`, in [2] (read-out: IC50), the IC50 was found to be 16.2 µM.

Turning to `COc1cc(O)c2c(c1)CCc1cc(O)ccc1-2` [LUSIANTHRIDIN], in assay [2], the EC50 is 22.3 µM. The IC50 is 62.2 µM and 22.3 µM in assay [2] (read-out: IC50); 4.6 µM in the assay with RAW264.7 [1].
